Series [1] can be described thus: Two-steps Dissolution/Precipitation in vitro Human Fasted model (gastric then intestinal compartment). Type of series: physicochemical. The note with it: for Crystalline phase conversion as detected by XRPD: solid residues collected in the fasted Dissolution/Precipitation test. The method, then:
Samples were analysed by HPLC-UV according to the following method: • Instrument: Agilent 1200 and 1100 with PDA detector • Column: Waters XTerra MS C18 3.5 μm 4.6×50 mm • Flow rate: 1.5 ml/min • UV detection: 220 nm, 270 nm, 290 nm • Column temperature: 40° C. • Injection volume: 1 μl • Mobile phase: gradient with solutions A and B prepared according to the following: • Eluent A: Ultrapurified water adjusted to pH2 with orthophosphoric acid 85% • Eluent B: Acetonitrile
The ABX464 crystalline Form I, and anhydrous ABX464 hemi-Napadisylate salt have been evaluated in the Two-steps Dissolution/Precipitation in vitro Human model.
The model consists in the following steps: • Dispensing selected material in Fasted simulated gastric medium containing 1% w PVPVA (inhibitor of precipitation) and then after 30 min, • Diluting obtained suspension by simulated Fasted intestinal medium.
Using this model, the dissolution of selected materials (ABX464 crystalline Form I, or anhydrous BX464 hemi-Napadisylate salt) in gastric medium and the risk of precipitation of the API (Active Pharmaceutical Ingredient) in intestinal compartment is evaluated.
The crystalline nature of solid residues collected by end of each steps (Gastric and Intestinal) have been determined by XRPD after centrifugation (15 min at 18000 rpm).
Protocol for Dissolution/Precipitation Model in Human Fasted Conditions • In 6 different vials, 4.0 mg equivalent ABX464 of selected material are weighed • Solubility measurement in the gastric compartment (also named G) after 15 min (G15 min) and after 30 min (G30 min) which comprises the following steps: • Adding 1 mL of FaSSGF pH 1.2 medium containing 1% w PVPVA (ABX464 target concentration=4 mg/ml) on the 6 vials, • Mixing with a vortex at 37° C. • At times 15 min and 30 min, considering one vial (vials labelled G15 min and G30 min respectively) and for each vials • noting the aspect of suspension, • centrifuging 5 min at 18000 rpm and filtering on a 0.45 μm filter (filter Millex LCR Ref. SLCR0,13NK). • Measuring the pH of supernatant, • Dosing ABX464 soluble fraction by HPLC, • Recording XPRD pattern on the final time point sample. • Solubility measurement in the intestinal compartment (also named I) after 15 min (vial I 15 min), 30 min (vial I 30 min), 60 min (vial I 60 min) and 120 min (vial I 120 min) which comprises the following steps: • Adding 1 mL of FaSSIF ×2 pH 6.5 medium/sodium bicarbonate 90/10) on the 4 remaining vials (ABX464 target concentration=2 mg/ml) • Mixing with a Vortex at 37° C. • At times 15 min, 30 min, 60 min and 120 min, considering one vial (vials labelled I 15 min, I 30 min, I 60 min and I 120 min respectively) and for each vials • noting the aspect of suspension • Centrifuging 5 min at 18000 rpm and filtering on a 0.45 μm filter (filter Millex LCR Ref. SLCR0,13NK). • Measuring the pH of supernatant • Dosing ABX464 soluble fraction by HPLC • Recording XPRD pattern on the final time point sample.
Composition and preparation of biorelevant media in Fasted conditions (see tables 11 and 12): • Fasted Gastric medium=FaSSGF pH=1.2/1% PVPVA w/v
• Fasted Intestinal medium (FaSSIF X2 pH=6.5/Sodium Bicarbonate at 80 g/l 90/10 v/v) Composition/Preparation of FaSSIF ×2 (medium concentrated 2 times to take into account the dilution in the Fasted model):
The FaSSIF X2/Sodium Bicarbonate 80 g/l (90/10; v/v) mixture was prepared to keep pH equal to 6.5 in the intestinal compartment after dilution.

A short description of the next series: physchem. The note with it: thermodynamic from solid.
Series [2] is described as follows: Kinetic solubility in two aqueous media (FaSSIF pH 6.5 + 1% PVPVA; FeSSIF pH 5.0 + 1% PVPVA). The conditions noted are these: for Solubility compared to the ABX464 crystalline Form I: FaSSIF and FeSSIF media (+ 1% PVPVA), at each time; for Kinetic solubility: room temperature, 2 mg/ml equivalent ABX464 target.
Description: (§1) These two specific aqueous media are more particularly: • FaSSIF (namely Fasted State Simulated Intestinal Fluid) pH=6.5+1% by weight of PVPVA (polyvinyl pyrrolidone-vinyl acetate: a precipitation inhibitor); and • FeSSIF (namely Fed State Simulated Intestinal Fluid) pH=5.0+1% by weight of PVPVA (a precipitation inhibitor)
(§2) To make 5 mL of FeSSIF the steps were as follows: • weighing 56.0 mg of SIF Powder, adding 350 μl of FeSSIF Buffer Concentrate then making up to 5.0 mL with ultrapurified water; and adding 1% w/w PVPVA.
Where [3] appears, read: FaSSIF pH 6.5 + 1% PVPVA, pH 6.5, aqueous with cosolvent or surfactant or cyclodextrin.
[4] abbreviates: FeSSIF + 1% PVPVA, pH 5, aqueous with cosolvent or surfactant or cyclodextrin.
[5] abbreviates: FeSSIF pH 5 + 1% PVPVA, pH 5, aqueous with cosolvent or surfactant or cyclodextrin.

SMILES strings stand for the structures. ≈ marks a conversion by molar mass, not a printed value. Read-outs that look alike come from different tables or passages of the source.

Description for physchem: as §1, §2

As usually defined, the solubility (kinetic) is solubility judged after dilution from a stock solution rather than from solid. Consider `FC(F)(F)Oc1ccc(Nc2ccc3cccc(Cl)c3n2)cc1` [ABX464 crystalline Form I, 8-chloro-N-(4-(trifluoromethoxy)phenyl)quinolin-2-amine], for which, in series [1] (37 °C, pH 1.2, fassgf or other biorelevant, thermodynamic from solid, gastric compartment, vial G 15 min, FaSSGF pH 1.2 + 1% PVPVA, 37° C., target about 4 mg/ml, read-out: Soluble fraction), the solubility at 15 min stood at 60 µg/mL. The solubility at 30 min in series [1] (37 °C, pH 1.2, fassgf or other biorelevant, thermodynamic from solid, gastric compartment, vial G 30 min, FaSSGF pH 1.2 + 1% PVPVA, 37° C., target about 4 mg/ml, read-out: Soluble fraction) turned out to be 70 µg/mL. In addition, the solubility in series [1] (37 °C, pH 6.5, fassif, thermodynamic from solid, intestinal compartment at pH 6.5 of the fasted human in vitro model, read-out: Solubility (ABX464 soluble fraction) in the intestinal compartment) was ~80 µg/mL (≈ 236 µM). Besides, the solubility at 15 min in series [1] (37 °C, pH 6.5, fassif, thermodynamic from solid, intestinal compartment, vial I 15 min (45 min total), FaSSIF x2 pH 6.5/sodium bicarbonate 90/10 added, 37° C., target about 2 mg/ml, read-out: Soluble fraction) was 60 µg/mL (≈ 177 µM). In addition, in series [1] (37 °C, pH 6.5, fassif, thermodynamic from solid, intestinal compartment, vial I 30 min (60 min total), FaSSIF x2 pH 6.5/sodium bicarbonate 90/10 added, 37° C., target about 2 mg/ml, read-out: Soluble fraction), the solubility at 30 min was 70 µg/mL (≈ 207 µM). Besides, the solubility at 60 min in series [1] (37 °C, pH 6.5, fassif, thermodynamic from solid, intestinal compartment, vial I 60 min (90 min total), FaSSIF x2 pH 6.5/sodium bicarbonate 90/10 added, 37° C., target about 2 mg/ml, read-out: Soluble fraction) turned out to be 70 µg/mL (≈ 207 µM). Further, the solubility at 120 min in series [1] (37 °C, pH 6.5, fassif, thermodynamic from solid, intestinal compartment, vial I 120 min (150 min total), FaSSIF x2 pH 6.5/sodium bicarbonate 90/10 added, 37° C., target about 2 mg/ml, read-out: Soluble fraction) is 80 µg/mL (≈ 236 µM). Moreover, the “Crystalline phase conversion as detected by XRPD” value in series [1] (intestinal compartment) is on record as “no crystalline phase conversion”. For the same compound, in “physchem” (setting [3]), the solubility (kinetic) at 5 min is 6 µg/mL, the solubility (kinetic) at 30 min was 22 µg/mL, the solubility (kinetic) at 2 h amounted to 47 µg/mL and the solubility (kinetic) at 4 h came to 62 µg/mL. Moreover, the kinetic solubility at 24 h in “physchem” (setting [3]) turned out to be 72 µg/mL. In “physchem” (setting [4]), the solubility at 2 h is ~300 µg/mL and the solubility at 24 h is ~420 µg/mL. Besides, in “physchem” (setting [5]), the kinetic solubility at 5 min came out at 54 µg/mL, the solubility (kinetic) at 30 min is 153 µg/mL, the kinetic solubility at 2 h stood at 297 µg/mL and the kinetic solubility at 4 h turned out to be 358 µg/mL. The solubility (kinetic) at 24 h in the series “physchem” (setting [5]) was determined as 419 µg/mL.

Regarding `FC(F)(F)Oc1ccc(Nc2ccc3cccc(Cl)c3n2)cc1.FC(F)(F)Oc1ccc(Nc2ccc3cccc(Cl)c3n2)cc1.O=S(=O)(O)c1cccc2c(S(=O)(=O)O)cccc12` [anhydrous ABX464 hemi-Napadisylate salt], the Soluble fraction in series [1] (gastric compartment, vial G 15 min, FaSSGF pH 1.2 + 1% PVPVA, 37° C., target about 4 mg/ml) is listed as 0.05 mg/mL; in series [1] (gastric compartment, vial G 30 min, FaSSGF pH 1.2 + 1% PVPVA, 37° C., target about 4 mg/ml), 0.06 mg/mL; in series [1] (intestinal compartment, vial I 15 min (45 min total), FaSSIF x2 pH 6.5/sodium bicarbonate 90/10 added, 37° C., target about 2 mg/ml), 0.17 mg/mL; in series [1] (intestinal compartment, vial I 30 min (60 min total), FaSSIF x2 pH 6.5/sodium bicarbonate 90/10 added, 37° C., target about 2 mg/ml), 0.23 mg/mL; in series [1] (intestinal compartment, vial I 60 min (90 min total), FaSSIF x2 pH 6.5/sodium bicarbonate 90/10 added, 37° C., target about 2 mg/ml), 0.32 mg/mL; in series [1] (intestinal compartment, vial I 120 min (150 min total), FaSSIF x2 pH 6.5/sodium bicarbonate 90/10 added, 37° C., target about 2 mg/ml) it was 0.43 mg/mL. In addition, the “Solubility (ABX464 soluble fraction) in the intestinal compartment” value in series [1] (intestinal compartment at pH 6.5 of the fasted human in vitro model) is ~430 µg/mL. Moreover, the “Crystalline phase conversion as detected by XRPD” value in series [1] (intestinal compartment) is on record as “no crystalline phase conversion”. The “Solubility compared to the ABX464 crystalline Form I” value is “higher solubility” in series [2] and “significant higher solubility” in series [2] (listed as ABX464 hemi-Napadisylate salt). Moreover, the Kinetic solubility amounted to 70 µg/mL in series [2] (FassiF pH 6.5 + 1% PVPVA, sampling time 5 min); 116 µg/mL in series [2] (FassiF pH 6.5 + 1% PVPVA, sampling time 30 min); 149 µg/mL in series [2] (FassiF pH 6.5 + 1% PVPVA, sampling time 2 h); 206 µg/mL in series [2] (FassiF pH 6.5 + 1% PVPVA, sampling time 4 h); 432 µg/mL in series [2] (FassiF pH 6.5 + 1% PVPVA, sampling time 24 h); 396 µg/mL in series [2] (FessiF pH 5 + 1% PVPVA, sampling time 5 min). Further, the Kinetic solubility in series [2] (FessiF pH 5 + 1% PVPVA, sampling time 30 min) was 782 µg/mL; in series [2] (FessiF pH 5 + 1% PVPVA, sampling time 2 h), 1053 µg/mL; in series [2] (FessiF pH 5 + 1% PVPVA, sampling time 4 h) it was 1055 µg/mL; in series [2] (FessiF pH 5 + 1% PVPVA, sampling time 24 h), 1517 µg/mL. In series [2] (FeSSIF + 1% PVPVA medium, at 2 h), the “Solubility, plateau” value was ~1050 µg/mL. Further, the solubility in series [2] (FeSSIF + 1% PVPVA medium, at 24 h) was ~1520 µg/mL.

The values above are taken from patent US20230067676A1, “CO-CRYSTALS AND SALTS OF 8-CHLORO-N-(4-(TRIFLUOROMETHOXY)PHENYL)QUINOLIN-2-AMINE” (ABIVAX, priority 2020, published 2023).
